Laboratory results reported in patent US20260248787A9, “MEDICAMENT FOR TREATING CANCER COMPRISING OPTICALLY ACTIVE AZABICYCLO RING DERIVATIVE” (Sumitomo Pharma Co., Ltd., priority 2023, published 2026).

What was measured:
[1] = system: HOXA9, MEIS1, PBX3, CD11b gene expression; experiment: Phase 1/2 clinical study, pharmacodynamic gene expression biomarkers in bone marrow aspirate; assay type: in vivo, human
Description: All dose levels and time points are combined.
(2) FIGS. 6A and 6B show average of the maximum percentage change of gene expression of leukemic (HOXA9, MEIS1, PBX3) and differentiation (CD11b) biomarkers in bone marrow aspirate of patients from all dose levels, for whom a baseline and post-baseline sample were collected.

[2] = system: OCI-AML3 cells; experiment: Tumor-bearing mice transplanted with OCI-AML3 cells, with cytarabine and daunorubicin, T/C (Example 14); assay type: in vivo; details: oral, 21 days
Protocol: Cytarabine (Cylocide Injection 200 mg/10 mL, Nippon Shinyaku Co., Ltd.) was diluted with saline (Otsuka Saline Injection, Otsuka Pharmaceutical Factory Co., Ltd.) to 8 mg/mL. Daunorubicin (Daunomycin for injection 20 mg, Meiji, Seika Pharma Co., Ltd.) was dissolved in saline (Otsuka Saline Injection, Otsuka Pharmaceutical Factory Co., Ltd.) to 0.2 mg/mL.
OCI-AML3 cells (DSMZ) were intradermally implanted around the ventral region of 7-week old NOD. CB17-PrkdcSCID/J mice (female, The Jackson Laboratory Japan) at 1×10^6 cells/mouse. […] Cytarabine was intraperitoneally administered to the mice at a dose of 80 mg/kg once a day for 5 days. Daunorubicin was intravenously administered to the mice at a dose of 1 mg/kg once a day for 3 days. The tumor volume was measured over time from the start of the administration, and the reduction effect of the tumor volume due to the compound-administration was evaluated. The tumor volume was calculated by the following formula using short axis and long axis of the tumor measured with an electronic caliper (Mitutoyo).
The control administration group in which only the solvent was administered and the test substance administration group were compared, and T/C was calculated using the following formula to evaluate the antitumor effect.

[3] = human, in vivo
[4] = patients with MLLr or NPM1m AML, all dose levels and time points (FIG. 5)
[5] = patients with target mutations, all dose levels (FIGS. 6A, 6B)
[6] = patients, notable with MLLr or NPM1m (Example 3)

C=C1C[C@@H]2CC[C@H]1[C@@H](C(=O)N1CCC3(CC1)CN(c1ncncc1Oc1ccc(F)cc1C(=O)N(C(C)C)C(C)C)C3)N2 [the present compound, 5-fluoro-2-[(4-{7-[(1S,3S,4R)-5-methylidene-2-azabicyclo[2.2.2]octane-3-carbonyl]-2,7-diazaspiro[3.5]nonan-2-yl}pyrimidin-5-yl)oxy]-N,N-di(propan-2-yl)benzamide]
gene expression of CD11b in bone marrow aspirate [1, 4]: increases
gene expression of HOXA9, PBX3 and MEIS1 in bone marrow aspirate [1, 4]: Clear decreases
gene expression of CD11b in bone marrow aspirate [1, 5]: increases
gene expression of HOXA9, PBX3 and MEIS1 in bone marrow aspirate [1, 5]: Clear decreases
change in CD11b [1, 6]: increases
change in HOXA9, PBX3 and MEIS1 [1, 6]: decreases
T/C ([2]; 100 mg/kg): 53.1%
T/C ([2]; 200 mg/kg): 41.7%
SAE COVID-19, CTCAE Grade [3]: 3
